The values that follow come from patent publication EP0240392A1, “Compounds of the cyclophosphazene type, process for their preparation and pharmaceutical preparation containing them” (CENTRE NATIONAL DE LA RECHERCHE SCIENTIFIQUE (CNRS), priority 1986, dated 1987).

Marks after values point to notes of the source that are not given here.

The assay relates to CARCINOME DU POUMON DE LEWIS. Nature of the assay: Antitumour activity on Lewis lung carcinoma implanted i.m. in mice. Type of assay: in vivo, souris C57Bl/6. To be noted: 60 mg/kg i.p. x j 1,5,9. The source says: Les tests d'activité antitumorale ont été conduits au sein du Screening and Pharmacology Group de l'E.O.R.T.C., implanté à l'Institut Mario Negri de Milan.
Ces essais ont été conduits soit en mono-injection à différentes doses au jour J+1 suivant la greffe de la tumeur, soit en poly-injections chroniques Q1D, soit en protocoles Q4D.

`O=P1(N(CCCl)CCCl)NCCCO1` (stereo not shown) [CPA, Cyclophosphamide, reference compound]: the “Volume de la tumeur (d^2.D/2)cm^3 ± S.E.” value (jour 17) is reported as 0,57±0,16* cm^3, the “Volume de la tumeur (d^2.D/2)cm^3 ± S.E.” value (jour 20) is 1,30±0,17* cm^3 and the “Volume de la tumeur (d^2.D/2)cm^3 ± S.E.” value (jour 24) was 3,03±0,25* cm^3. Further, the “Poids moyen de la tumeur (g ± S.E.)” value (sacrifice jour 25) is 4,14 ± 0,27 g.
